Measurements published in ChEMBL document CHEMBL1201862, “PubChem BioAssay data set” (2004).
Active and inactive are the calls of the source.

What was measured:
Protein S100-A4 = Protein S100-A4 (Homo sapiens, UniProt P26447); assay: S100A4-myosin IIA binding inhibitor potency, dose response, biochemical, fluorescence polarization, cherry-picked hits (AID 687001); assay type: functional
Troponin, cardiac muscle = Troponin, cardiac muscle (Homo sapiens, UniProt P19429+P45379+P63316); assay: Fluorescence-based biochemical high throughput dose response assay for activators of the calcium sensitivity of cardiac Regulated Thin Filaments (RTF). [Related pubchem assays (depositor defined):AID493008, AID493018, AID504382, AID504383]; assay type: protein-complex assay
[1] = biological target: T1, Sentrin-specific protease 8 (Homo sapiens, UniProt Q96LD8); assay type: functional
T1 sequence (Q96LD8 whole entry): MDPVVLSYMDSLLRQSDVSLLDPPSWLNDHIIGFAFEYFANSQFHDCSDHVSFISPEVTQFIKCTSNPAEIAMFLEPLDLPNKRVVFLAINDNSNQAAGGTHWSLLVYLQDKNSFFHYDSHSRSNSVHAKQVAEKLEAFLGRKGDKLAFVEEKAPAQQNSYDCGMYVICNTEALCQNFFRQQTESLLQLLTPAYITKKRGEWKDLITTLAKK

[2] = biological target: T1, Sentrin-specific protease 8; assay type: functional; remark: listed apart in the source
Vero = assay: Vero cell toxicity, dose response, cytotoxicity control, plate reader, cherry-pick samples (AID 687020); assay type: functional, cell-based; settings: Chlorocebus sabaeus
[3] = miR-122 activators in hepatoma reporter cells, dose response, cell-based, Huh7 psiCHECK-miR122, Renilla luciferase, cherry-picked (AID 651956); assay type: functional;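 also: huh7 hepatoma cells stably carrying a psiCHECK-2 miR-122 sensor plasmid; renilla luciferase signal reporting endogenous miR-122 activity after 48 h compound exposure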
[4] = inhibitors of TNFa-stimulated NF-kB luciferase reporter, dose response, selectivity assay for EBV LMP1 NF-kB inhibitor project, HEK293 LMP1 reporter cells, dry powder, set 2 (AID 624369); assay type: functional
[5] = HEK293 cell viability, dose response, counter-screen for EBV LMP1 inhibitor project, dry powder, set 2 (AID 624374); assay type: functional
[6] = biological target: Mitochondrial peptide methionine sulfoxide reductase (Bos taurus, UniProt P54149); assay type: functional;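 also: absorbance read-out, biochemical high-throughput dose-response screen for MsrA inhibitors, confirmatory; recombinant bovine MsrA coupled to E. coli TrxB with NADPH and selenocystamine; potency is for inhibitors of MsrA activity on DMSO substrate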
Mitochondrial peptide methionine sulfoxide reductase, sequence (P54149 whole entry): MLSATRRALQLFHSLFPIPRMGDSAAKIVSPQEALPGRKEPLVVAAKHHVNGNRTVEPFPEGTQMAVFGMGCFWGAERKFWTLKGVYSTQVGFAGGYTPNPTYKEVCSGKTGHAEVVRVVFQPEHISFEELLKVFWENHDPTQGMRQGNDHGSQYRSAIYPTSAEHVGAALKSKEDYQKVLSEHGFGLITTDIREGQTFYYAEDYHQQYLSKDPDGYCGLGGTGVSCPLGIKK

[7] = biological target: Aryl hydrocarbon receptor (Homo sapiens, UniProt P35869); settings: Potency;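 also: confirmatory quantitative high-throughput screen measuring activation of the AhR signaling pathway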
Aryl hydrocarbon receptor, sequence (P35869 whole entry): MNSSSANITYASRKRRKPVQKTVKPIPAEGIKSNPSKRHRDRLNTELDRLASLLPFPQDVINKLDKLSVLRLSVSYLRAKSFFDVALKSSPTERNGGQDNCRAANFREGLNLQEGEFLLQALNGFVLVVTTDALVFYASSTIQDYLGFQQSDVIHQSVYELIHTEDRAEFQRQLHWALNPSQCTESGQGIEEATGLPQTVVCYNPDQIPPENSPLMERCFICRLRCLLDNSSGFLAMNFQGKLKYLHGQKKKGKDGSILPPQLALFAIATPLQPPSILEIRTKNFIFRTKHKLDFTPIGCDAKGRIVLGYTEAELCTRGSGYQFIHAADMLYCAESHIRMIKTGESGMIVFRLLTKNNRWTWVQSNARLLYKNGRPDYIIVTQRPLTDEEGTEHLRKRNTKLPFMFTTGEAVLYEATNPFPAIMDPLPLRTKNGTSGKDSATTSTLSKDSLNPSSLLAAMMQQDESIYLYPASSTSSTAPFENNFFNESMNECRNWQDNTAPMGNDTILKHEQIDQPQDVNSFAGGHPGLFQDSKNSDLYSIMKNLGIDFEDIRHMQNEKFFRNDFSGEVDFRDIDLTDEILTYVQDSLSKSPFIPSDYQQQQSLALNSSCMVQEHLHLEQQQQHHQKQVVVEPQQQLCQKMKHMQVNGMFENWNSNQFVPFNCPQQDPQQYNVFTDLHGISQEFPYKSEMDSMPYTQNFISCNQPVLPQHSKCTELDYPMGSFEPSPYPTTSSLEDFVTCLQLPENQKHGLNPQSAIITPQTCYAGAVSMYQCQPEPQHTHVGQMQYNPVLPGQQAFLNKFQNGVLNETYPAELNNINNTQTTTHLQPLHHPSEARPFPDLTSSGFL

Protein S100-A4, sequence (P26447 whole entry): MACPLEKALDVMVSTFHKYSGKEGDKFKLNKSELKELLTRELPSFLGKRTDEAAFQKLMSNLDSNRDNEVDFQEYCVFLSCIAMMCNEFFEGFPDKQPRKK

**Q.** Which AC50 (Protein S100-A4) does the source give for `Cc1ccc(N2C3=C(C(=O)CC(C)(C)C3)C(c3cn(C)nc3C)C3=C2CC(C)(C)CC3=O)cc1` here?
**A.** 2.04 µM (active)

**Q.** What about the EC50 (Troponin, cardiac muscle) of the same molecule?
**A.** 6.28 µM (active)

**Q.** With `CC(NC(=O)COC(=O)c1ccc([N+](=O)[O-])o1)c1ccccc1` (stereo not given) as the molecule, how does the IC50 [1] read?
**A.** 11.8 µM (active)

**Q.** What about the IC50 [2] of the same molecule?
**A.** 7.54 µM (active)

**Q.** Which AC50 (Vero) does the source give for `COc1ccc(CC(=O)NCC2CCCN(Cc3ccc(OC(F)(F)F)cc3)C2)cc1` (stereo not given) here?
**A.** 17.1 µM (active)

**Q.** For `C[C@H]1CN([C@@H](C)CO)C(=O)c2cc(C#Cc3ccccc3F)cnc2O[C@@H]1CN(C)C(=O)C1CCCCC1`, which AC50 [3] is on record?
**A.** 0.565 µM (active)

**Q.** And the AbsAC35 [4]?
**A.** 66.69 µM

**Q.** For `Cc1noc(C)c1S(=O)(=O)Nc1ccc2c(c1)C(=O)N([C@@H](C)CO)C[C@H](C)[C@H](CN(C)Cc1ccc(C(F)(F)F)cc1)OCCCC[C@H](C)O2`, which AbsAC35 [5] is on record?
**A.** 149.08 µM

**Q.** For `N#Cc1c(-n2cccc2/C=N/O)sc2c1CCCC2`, which IC50 [6] is on record?
**A.** 155 µM (inactive)

**Q.** With `CC(C)N1C(=O)c2ccccc2NS1(=O)=O` [BENTAZON] as the molecule, how does the AC50 [7] read?
**A.** 79.4 µM (inconclusive)
